Assays:
Pseudomonas = test: Mastitis-infected cow with chronic Pseudomonas infection treated by intramammary infusion; format: in vivo; conditions: 100 ug infusions twice a day in the infected gland; after 2 treatments; from thousands of bacteria per ml; detection limit 100 cfu/ml; FIG. 4
Experimental: After weeks of various conventional treatment the cow was treated with 25(OH)D3 as described in Example 1, with 100 ug infusions twice a day in the infected gland. The treatment of this animal with 25(OH)D3 caused the bacterial load to go from thousands of bacteria per ml to at or below our detection limit of 100 cfu/ml after 2 treatments (FIG. 4).

Cyp24A1 = Cyp24A1 gene expression in milk cells after intramammary infusion into an infected mammary quarter; format: in vivo; conditions: single 100 μg infusion into infected mammary quarter of two cows; compared to cells obtained prior to infusion
S. uberis = test: Experimental S. uberis intramammary infection (mastitis) treated by intramammary infusion after each milking; format: in vivo, cows; conditions: for reduction in bacterial load: 100 μg in 10-ml FBS after each milking, vs FBS sham control
Experimental: Seven of the animals were treated after each milking with 100 μg of 25(OH)D3 in 10-ml fetal bovine serum (FBS), the other seven were sham treated with 10-ml FBS only. […] The lower bacterial load in the 25(OH)D3 treated animals and therefore a likely reduction of pyrogens explains the reduction in fever seen in the treated group. The level of bovine serum albumin (BSA) in the milk is used as an indicator of changes in the mammary vascular permeability in the gland and typically increases with an acute infection. […] Fewer bacteria in the treated group (FIG. 1) leads to less tissue damage (FIG. 3) and leads to less pyrogens going systemic (FIG. 2). Also, after the fourth day of the infection two cows (out of 6) in the 25D3 had no infection, whereas, all six were infected at this time point in the control treated group.

Question: What does the source list for `C=C1CC[C@H](O)C/C1=C/C=C1\CCC[C@]2(C)[C@@H]([C@H](C)CCCC(C)(C)O)CC[C@@H]12` [25(OH)D3, 25-hydroxy vitamin D3]?
Answer: bacterial load (Pseudomonas): ≤ 100 cfu/ml; gene expression of Cyp24A1 (Cyp24A1): increased; reduction in bacterial load (S. uberis; day 2 of the experiment): 2-4 log; reduction in bacterial load (S. uberis; days 4 and 5 post infection): 1.5-2 log; cows with no infection (S. uberis; after the fourth day of the infection, all six control cows were infected): two; level of bovine serum albumin (BSA) in the milk (S. uberis; indicator of mammary vascular permeability, treated vs control, FIG. 3): not statistically significant; bacterial counts in infected glands (S. uberis; repeated measures analysis, significant difference (p<0.05) at day 2 AM and day 2 PM, FIG. 1): significantly (p<0.05) reduced; rectal temperatures (S. uberis; treated vs control cows at two time points (p<0.05), FIG. 2): significantly lower

— US8785421B1, “Use of vitamin D in dairy mastitis treatment” (The United States of America as represented by the …, priority 2011, dated 2014)
